How the values were obtained:
[1] = biological target: 5-hydroxytryptamine receptor 2B (Homo sapiens, UniProt P41595); type: cell membranes, CHO-K1, Membrane; further: in other assays of this panel Not Active means under 50% inhibition at 10 µM
[2] = biological target: Delta-type opioid receptor (Homo sapiens, UniProt P41143); type: cell membranes, HEK293, Membrane; details: hek293; further: in other assays of this panel Not Active means under 50% inhibition at 10 µM
[3] = biological target: Protein phosphatase 3 catalytic subunit alpha (Homo sapiens, UniProt Q08209); set-up: species or system Escherichia coli;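 further: inhibition of calcineurin (PP2B) enzyme activity, measured with DiFMUP as the substrate; in other assays of this panel Not Active means under 50% inhibition at 10 µM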
[4] = biological target: T1, C-X-C chemokine receptor type 2 (Homo sapiens, UniProt P25025); type: cell membranes, Membrane; details: cho-k1; further: in other assays of this panel Not Active means under 50% inhibition at 10 µM
T1 sequence (P25025 whole entry): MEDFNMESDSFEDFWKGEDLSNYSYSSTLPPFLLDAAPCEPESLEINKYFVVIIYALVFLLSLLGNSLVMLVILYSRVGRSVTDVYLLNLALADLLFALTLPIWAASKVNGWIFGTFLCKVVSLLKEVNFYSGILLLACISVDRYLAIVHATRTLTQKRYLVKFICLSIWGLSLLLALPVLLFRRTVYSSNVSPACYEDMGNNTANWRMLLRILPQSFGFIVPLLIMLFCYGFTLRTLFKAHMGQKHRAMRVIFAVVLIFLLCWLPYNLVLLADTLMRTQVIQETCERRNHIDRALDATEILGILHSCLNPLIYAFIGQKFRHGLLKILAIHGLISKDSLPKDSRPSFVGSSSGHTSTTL

Melanocortin receptor 4 = Melanocortin receptor 4 (Homo sapiens, UniProt P32245); type: cell membranes, Membrane; details: hek293; further: in other assays of this panel Not Active means under 50% inhibition at 10 µM
Sequence of Melanocortin receptor 4 (P32245 whole entry): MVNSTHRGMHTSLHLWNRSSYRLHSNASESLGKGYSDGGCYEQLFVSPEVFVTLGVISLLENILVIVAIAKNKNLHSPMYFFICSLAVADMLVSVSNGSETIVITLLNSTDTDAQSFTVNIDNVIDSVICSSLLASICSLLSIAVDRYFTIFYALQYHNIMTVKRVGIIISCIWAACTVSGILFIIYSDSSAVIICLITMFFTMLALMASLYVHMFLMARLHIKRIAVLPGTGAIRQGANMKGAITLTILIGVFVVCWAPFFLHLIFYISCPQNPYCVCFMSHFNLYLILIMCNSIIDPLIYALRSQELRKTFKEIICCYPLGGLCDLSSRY

[5] = DRUGMATRIX: Glutamate, NMDA, Agonism radioligand binding (ligand: [3H] CGP-39653); type: cell membranes, Rattus norvegicus, Wistar, Cerebral cortex, Membrane; details: Not Active = under 50% inhibition at 10 µM
[6] = DRUGMATRIX: Nicotinic Acetylcholine radioligand binding (ligand: [125I] Epibatidine); type: cell membranes, Membrane; details: imr-32; Not Active = under 50% inhibition at 10 µM
Vasopressin V1a receptor = Vasopressin V1a receptor (Homo sapiens, UniProt P37288); type: cell membranes, Membrane; details: hek293; further: in other assays of this panel Not Active means under 50% inhibition at 10 µM
Acetylcholinesterase = Acetylcholinesterase (Homo sapiens, UniProt P22303); assay: DRUGMATRIX: Acetylcholinesterase enzyme inhibition (substrate: acetylthiocholine); type: cell-based, HEK293; details: hek293; Not Active = under 50% inhibition at 10 µM
Sequence of Acetylcholinesterase (P22303 whole entry): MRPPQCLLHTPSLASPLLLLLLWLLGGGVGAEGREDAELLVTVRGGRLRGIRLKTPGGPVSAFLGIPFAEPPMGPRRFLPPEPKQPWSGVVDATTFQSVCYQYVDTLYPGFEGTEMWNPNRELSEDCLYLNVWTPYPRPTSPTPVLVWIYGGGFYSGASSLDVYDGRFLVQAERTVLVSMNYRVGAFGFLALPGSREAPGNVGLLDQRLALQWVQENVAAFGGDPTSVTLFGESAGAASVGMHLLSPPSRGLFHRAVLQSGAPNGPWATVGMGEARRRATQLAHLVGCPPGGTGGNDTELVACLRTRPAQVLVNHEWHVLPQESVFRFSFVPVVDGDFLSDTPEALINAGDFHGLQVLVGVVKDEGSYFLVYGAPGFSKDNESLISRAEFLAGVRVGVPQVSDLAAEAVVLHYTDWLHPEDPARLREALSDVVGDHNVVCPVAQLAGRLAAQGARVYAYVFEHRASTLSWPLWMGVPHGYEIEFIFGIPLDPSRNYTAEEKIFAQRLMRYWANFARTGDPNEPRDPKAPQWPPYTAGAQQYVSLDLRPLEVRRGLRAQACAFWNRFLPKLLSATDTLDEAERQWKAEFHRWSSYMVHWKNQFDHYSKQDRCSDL

Thromboxane-A synthase = biological target: T2, Thromboxane-A synthase (Homo sapiens, UniProt P24557); assay: biochemical; type: tissue-based, Platelet
T2 sequence (P24557 whole entry): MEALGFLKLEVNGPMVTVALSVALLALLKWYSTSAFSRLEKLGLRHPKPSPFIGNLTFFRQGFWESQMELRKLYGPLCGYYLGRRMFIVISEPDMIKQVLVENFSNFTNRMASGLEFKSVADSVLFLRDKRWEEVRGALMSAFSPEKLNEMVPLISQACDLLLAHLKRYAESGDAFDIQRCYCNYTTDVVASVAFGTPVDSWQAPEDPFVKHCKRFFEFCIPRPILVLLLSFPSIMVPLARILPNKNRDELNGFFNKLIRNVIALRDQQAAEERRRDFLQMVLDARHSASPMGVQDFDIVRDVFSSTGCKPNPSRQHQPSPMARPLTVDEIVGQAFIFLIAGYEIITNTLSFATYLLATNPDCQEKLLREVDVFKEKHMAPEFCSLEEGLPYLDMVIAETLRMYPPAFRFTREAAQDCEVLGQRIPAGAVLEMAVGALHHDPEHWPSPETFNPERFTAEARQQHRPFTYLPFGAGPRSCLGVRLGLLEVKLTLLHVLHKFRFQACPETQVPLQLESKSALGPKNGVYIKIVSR

[7] = biological target: Epidermal growth factor receptor (Homo sapiens, UniProt P00533); assay: DRUGMATRIX: Protein Tyrosine Kinase, EGF Receptor enzyme inhibition (substrate: Poly(Glu:Tyr)); type: cell-based, Insect cells; details: insect cells; Not Active = under 50% inhibition at 10 µM
Sequence of Epidermal growth factor receptor (P00533 whole entry): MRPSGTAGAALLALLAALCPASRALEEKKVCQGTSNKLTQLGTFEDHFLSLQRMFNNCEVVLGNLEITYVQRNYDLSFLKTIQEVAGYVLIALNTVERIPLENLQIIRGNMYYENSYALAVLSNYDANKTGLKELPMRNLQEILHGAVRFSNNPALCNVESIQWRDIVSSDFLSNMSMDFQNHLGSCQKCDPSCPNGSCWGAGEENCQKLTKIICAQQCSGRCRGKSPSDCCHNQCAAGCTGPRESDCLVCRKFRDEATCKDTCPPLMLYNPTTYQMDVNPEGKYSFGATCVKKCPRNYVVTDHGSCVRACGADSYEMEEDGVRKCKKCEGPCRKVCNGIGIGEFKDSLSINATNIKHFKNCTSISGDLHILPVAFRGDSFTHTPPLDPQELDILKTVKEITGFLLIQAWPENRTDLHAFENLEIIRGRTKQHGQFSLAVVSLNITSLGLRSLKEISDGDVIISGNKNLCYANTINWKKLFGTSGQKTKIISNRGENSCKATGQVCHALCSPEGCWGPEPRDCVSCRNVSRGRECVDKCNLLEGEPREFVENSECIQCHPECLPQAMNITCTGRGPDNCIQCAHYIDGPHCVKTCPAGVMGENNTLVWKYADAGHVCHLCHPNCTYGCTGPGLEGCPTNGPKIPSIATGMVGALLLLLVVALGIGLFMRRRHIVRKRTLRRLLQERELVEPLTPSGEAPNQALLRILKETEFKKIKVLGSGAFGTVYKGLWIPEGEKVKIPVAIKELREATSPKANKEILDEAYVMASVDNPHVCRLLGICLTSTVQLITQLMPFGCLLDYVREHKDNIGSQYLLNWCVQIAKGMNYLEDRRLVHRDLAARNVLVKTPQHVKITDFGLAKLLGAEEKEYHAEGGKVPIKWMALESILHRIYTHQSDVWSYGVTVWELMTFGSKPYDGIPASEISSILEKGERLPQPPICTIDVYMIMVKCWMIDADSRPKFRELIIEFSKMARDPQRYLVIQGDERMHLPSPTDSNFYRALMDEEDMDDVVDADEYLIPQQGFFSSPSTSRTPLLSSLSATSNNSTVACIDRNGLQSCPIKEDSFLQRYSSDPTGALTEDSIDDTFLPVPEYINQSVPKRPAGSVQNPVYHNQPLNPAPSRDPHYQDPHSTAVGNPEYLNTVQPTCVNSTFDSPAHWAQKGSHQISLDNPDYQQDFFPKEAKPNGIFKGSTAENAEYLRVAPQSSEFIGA

[8] = biological target: T3, C-C chemokine receptor type 4 (Homo sapiens, UniProt P51679); type: cell membranes, Membrane; details: chem-1; further: in other assays of this panel Not Active means under 50% inhibition at 10 µM
T3 sequence (P51679 whole entry): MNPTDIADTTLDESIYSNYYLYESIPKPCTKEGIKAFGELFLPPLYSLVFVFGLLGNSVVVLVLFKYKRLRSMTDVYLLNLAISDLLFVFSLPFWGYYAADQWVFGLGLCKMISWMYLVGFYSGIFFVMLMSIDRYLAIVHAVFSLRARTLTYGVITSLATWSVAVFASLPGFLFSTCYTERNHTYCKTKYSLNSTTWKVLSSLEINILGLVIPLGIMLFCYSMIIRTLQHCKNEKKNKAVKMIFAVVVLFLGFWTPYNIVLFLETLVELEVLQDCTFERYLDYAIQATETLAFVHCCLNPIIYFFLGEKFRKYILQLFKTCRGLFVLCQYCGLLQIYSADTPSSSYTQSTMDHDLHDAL

Insulin receptor = Insulin receptor (Rattus norvegicus, UniProt P15127); type: cell membranes, Wistar, Liver, Membrane; further: in other assays of this panel Not Active means under 50% inhibition at 10 µM
Sequence of Insulin receptor (P15127 27-759 limits assumed): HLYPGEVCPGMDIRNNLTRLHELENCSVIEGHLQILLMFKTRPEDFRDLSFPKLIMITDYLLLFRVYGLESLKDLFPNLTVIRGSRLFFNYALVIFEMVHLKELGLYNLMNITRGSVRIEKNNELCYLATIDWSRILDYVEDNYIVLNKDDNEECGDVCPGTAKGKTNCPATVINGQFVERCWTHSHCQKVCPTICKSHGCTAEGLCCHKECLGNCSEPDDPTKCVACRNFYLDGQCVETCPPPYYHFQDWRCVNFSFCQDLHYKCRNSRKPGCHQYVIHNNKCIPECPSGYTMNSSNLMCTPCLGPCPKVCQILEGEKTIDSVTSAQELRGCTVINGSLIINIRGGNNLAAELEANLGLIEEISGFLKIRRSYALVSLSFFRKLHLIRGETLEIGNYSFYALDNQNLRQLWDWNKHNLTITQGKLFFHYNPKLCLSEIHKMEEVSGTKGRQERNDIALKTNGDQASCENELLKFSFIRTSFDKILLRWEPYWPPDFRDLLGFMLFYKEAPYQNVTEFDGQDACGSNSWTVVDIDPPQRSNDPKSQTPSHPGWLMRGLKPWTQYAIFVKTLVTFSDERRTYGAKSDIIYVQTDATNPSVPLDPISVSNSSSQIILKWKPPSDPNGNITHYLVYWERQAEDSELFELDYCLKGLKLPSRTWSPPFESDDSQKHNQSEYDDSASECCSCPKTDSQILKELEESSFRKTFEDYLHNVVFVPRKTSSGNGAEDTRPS
Sequence of Insulin receptor (P15127 764-1383 limits assumed): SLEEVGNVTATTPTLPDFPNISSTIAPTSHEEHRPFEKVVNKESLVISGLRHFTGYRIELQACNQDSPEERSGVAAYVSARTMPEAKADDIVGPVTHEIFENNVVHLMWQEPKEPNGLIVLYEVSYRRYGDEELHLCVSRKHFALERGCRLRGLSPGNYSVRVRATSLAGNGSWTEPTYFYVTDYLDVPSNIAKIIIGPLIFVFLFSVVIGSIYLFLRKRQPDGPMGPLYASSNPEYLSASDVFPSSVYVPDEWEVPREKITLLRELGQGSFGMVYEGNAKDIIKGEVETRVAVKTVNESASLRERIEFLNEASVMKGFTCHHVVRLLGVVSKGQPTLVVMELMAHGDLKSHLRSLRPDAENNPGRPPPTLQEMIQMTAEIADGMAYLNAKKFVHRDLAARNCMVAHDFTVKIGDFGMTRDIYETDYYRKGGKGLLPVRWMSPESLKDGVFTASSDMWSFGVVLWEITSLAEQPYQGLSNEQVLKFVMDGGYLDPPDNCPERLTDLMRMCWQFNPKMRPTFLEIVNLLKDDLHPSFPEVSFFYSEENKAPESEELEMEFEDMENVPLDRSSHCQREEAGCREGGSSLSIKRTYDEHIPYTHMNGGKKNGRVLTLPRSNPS

Cannabinoid receptor 1 = Cannabinoid receptor 1 (Homo sapiens, UniProt P21554); type: cell membranes, Membrane; details: chem-1; further: in other assays of this panel Not Active means under 50% inhibition at 10 µM
[9] = biological target: 5-hydroxytryptamine receptor 6 (Homo sapiens, UniProt P50406); type: cell membranes, HeLa, Membrane; further: in other assays of this panel Not Active means under 50% inhibition at 10 µM
Sequence of 5-hydroxytryptamine receptor 6 (P50406 whole entry): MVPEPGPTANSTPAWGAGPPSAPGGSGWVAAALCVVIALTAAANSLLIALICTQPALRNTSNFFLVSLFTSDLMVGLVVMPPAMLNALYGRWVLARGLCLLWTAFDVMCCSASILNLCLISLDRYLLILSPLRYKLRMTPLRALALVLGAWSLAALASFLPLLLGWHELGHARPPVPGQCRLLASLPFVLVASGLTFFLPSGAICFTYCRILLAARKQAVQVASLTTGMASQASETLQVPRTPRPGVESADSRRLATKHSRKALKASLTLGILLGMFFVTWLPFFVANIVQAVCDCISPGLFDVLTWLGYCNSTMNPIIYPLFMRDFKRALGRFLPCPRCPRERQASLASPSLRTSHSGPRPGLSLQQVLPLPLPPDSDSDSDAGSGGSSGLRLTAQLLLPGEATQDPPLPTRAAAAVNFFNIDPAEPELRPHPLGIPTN

[10] = DRUGMATRIX: Glutamate, AMPA radioligand binding (ligand: [3H] AMPA); type: cell membranes, Rattus norvegicus, Wistar, Cerebral cortex, Membrane; details: Not Active = under 50% inhibition at 10 µM
[11] = biological target: T4, Muscarinic acetylcholine receptor M2 (Homo sapiens, UniProt P08172); type: cell membranes, CHO-K1, Membrane; details: cho-k1; further: in other assays of this panel Not Active means under 50% inhibition at 10 µM
T4 sequence (P08172 whole entry): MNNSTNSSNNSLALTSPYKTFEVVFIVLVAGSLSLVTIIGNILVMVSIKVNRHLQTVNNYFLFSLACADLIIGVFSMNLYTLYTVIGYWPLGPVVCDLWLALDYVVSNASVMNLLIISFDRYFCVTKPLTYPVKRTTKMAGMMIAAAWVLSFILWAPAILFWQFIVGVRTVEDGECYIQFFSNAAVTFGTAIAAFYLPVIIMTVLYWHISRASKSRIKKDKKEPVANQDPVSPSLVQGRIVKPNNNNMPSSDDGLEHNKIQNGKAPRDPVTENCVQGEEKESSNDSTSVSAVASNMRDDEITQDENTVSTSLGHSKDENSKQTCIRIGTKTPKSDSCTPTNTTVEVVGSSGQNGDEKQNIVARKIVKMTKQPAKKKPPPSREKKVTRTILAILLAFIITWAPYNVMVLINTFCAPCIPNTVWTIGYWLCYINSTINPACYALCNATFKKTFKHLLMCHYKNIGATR

[12] = biological target: C-C chemokine receptor type 2 (Homo sapiens, UniProt P41597); type: cell membranes, CHO-K1, Membrane; further: in other assays of this panel Not Active means under 50% inhibition at 10 µM
[13] = biological target: Tyrosine-protein kinase Lck (Homo sapiens, UniProt P06239); assay: DRUGMATRIX: Protein Tyrosine Kinase, LCK enzyme inhibition (substrate: Poly(Glu:Tyr)); type: cell-based, Insect cells; details: insect cells; Not Active = under 50% inhibition at 10 µM

Sequence of Delta-type opioid receptor (P41143 whole entry): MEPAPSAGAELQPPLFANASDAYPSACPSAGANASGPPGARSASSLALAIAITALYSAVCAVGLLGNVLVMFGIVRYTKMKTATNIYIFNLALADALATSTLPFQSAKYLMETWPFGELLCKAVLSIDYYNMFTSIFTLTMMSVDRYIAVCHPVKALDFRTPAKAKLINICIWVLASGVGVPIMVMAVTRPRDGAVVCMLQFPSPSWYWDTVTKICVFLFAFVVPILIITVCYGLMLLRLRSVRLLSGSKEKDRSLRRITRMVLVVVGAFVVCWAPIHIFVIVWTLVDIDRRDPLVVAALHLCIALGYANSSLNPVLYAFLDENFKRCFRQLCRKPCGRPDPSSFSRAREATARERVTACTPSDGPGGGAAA
Sequence of 5-hydroxytryptamine receptor 2B (P41595 whole entry): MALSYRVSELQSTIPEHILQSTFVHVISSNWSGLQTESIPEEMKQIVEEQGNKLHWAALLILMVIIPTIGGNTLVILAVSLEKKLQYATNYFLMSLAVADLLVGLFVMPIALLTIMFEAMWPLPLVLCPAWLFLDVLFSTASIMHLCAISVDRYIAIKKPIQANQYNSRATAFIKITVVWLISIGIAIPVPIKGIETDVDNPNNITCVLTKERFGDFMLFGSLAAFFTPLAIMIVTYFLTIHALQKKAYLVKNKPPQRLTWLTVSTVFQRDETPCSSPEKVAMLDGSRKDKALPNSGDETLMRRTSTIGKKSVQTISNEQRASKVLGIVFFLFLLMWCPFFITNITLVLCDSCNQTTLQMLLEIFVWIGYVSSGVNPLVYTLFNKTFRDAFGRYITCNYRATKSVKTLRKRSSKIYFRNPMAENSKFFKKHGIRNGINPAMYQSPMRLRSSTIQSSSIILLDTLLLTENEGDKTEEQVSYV

COS(C)(=O)=O [METHANESULFONIC ACID METHYL ESTER]
IC50 ([1]; cho-k1): Not Active | IC50 [2]: Not Active | IC50 [3]: Not Active | IC50 [4]: Not Active | IC50 (Melanocortin receptor 4): Not Active | IC50 [5]: Not Active | Ki [5]: Not Active | IC50 [6]: Not Active | Ki [6]: Not Active | IC50 (Vasopressin V1a receptor): Not Active | IC50 (Acetylcholinesterase): Not Active | IC50 (Thromboxane-A synthase; platelet): Not Active | IC50 [7]: Not Active | IC50 [8]: Not Active | IC50 (Insulin receptor): Not Active | IC50 (Cannabinoid receptor 1): Not Active | IC50 ([9]; hela): Not Active | IC50 [10]: Not Active | Ki [10]: Not Active | IC50 [11]: Not Active | IC50 ([12]; cho-k1): Not Active | IC50 [13]: Not Active

COC(=O)c1ccc(O)cc1 [METHYLPARABEN]
IC50 ([1]; cho-k1): Not Active | IC50 [2]: Not Active | IC50 [3]: Not Active | IC50 [4]: Not Active | IC50 (Melanocortin receptor 4): Not Active | IC50 [5]: Not Active | Ki [5]: Not Active | IC50 [6]: Not Active | Ki [6]: Not Active | IC50 (Vasopressin V1a receptor): Not Active | IC50 (Acetylcholinesterase): Not Active | IC50 (Thromboxane-A synthase; platelet): Not Active | IC50 [7]: Not Active | IC50 [8]: Not Active | IC50 (Insulin receptor): Not Active | IC50 (Cannabinoid receptor 1): Not Active | IC50 ([9]; hela): Not Active | IC50 [10]: Not Active | Ki [10]: Not Active | IC50 [11]: Not Active | IC50 ([12]; cho-k1): Not Active | IC50 [13]: Not Active

C[C@](N)(Cc1ccc(O)cc1)C(=O)O [METYROSINE]
IC50 ([1]; cho-k1): Not Active | IC50 [2]: Not Active | IC50 [3]: Not Active | IC50 [4]: Not Active | IC50 (Melanocortin receptor 4): Not Active | IC50 [5]: Not Active | Ki [5]: Not Active | IC50 [6]: Not Active | Ki [6]: Not Active | IC50 (Vasopressin V1a receptor): Not Active | IC50 (Acetylcholinesterase): Not Active | IC50 (Thromboxane-A synthase; platelet): Not Active | IC50 [7]: Not Active | IC50 [8]: Not Active | IC50 (Insulin receptor): Not Active | IC50 (Cannabinoid receptor 1): Not Active | IC50 ([9]; hela): Not Active | IC50 [10]: Not Active | Ki [10]: Not Active | IC50 [11]: Not Active | IC50 ([12]; cho-k1): Not Active | IC50 [13]: Not Active

Clc1ccc(C(c2ccccc2Cl)C(Cl)Cl)cc1 (configuration not stated) [MITOTANE]
IC50 ([1]; read-out: IC50): 4.83 µM | Ki ([1]; read-out: Ki): 3.08 µM | IC50 [2]: Not Active | IC50 [3]: Not Active | IC50 [4]: Not Active | IC50 (Melanocortin receptor 4): Not Active | IC50 [5]: Not Active | Ki [5]: Not Active | IC50 [6]: Not Active | Ki [6]: Not Active | IC50 (Vasopressin V1a receptor): Not Active | IC50 (Acetylcholinesterase): Not Active | IC50 (Thromboxane-A synthase; platelet): Not Active | IC50 [7]: Not Active | IC50 [8]: Not Active | IC50 (Insulin receptor): Not Active | IC50 (Cannabinoid receptor 1): Not Active | IC50 ([9]; read-out: IC50): 1.4 µM | Ki ([9]; read-out: Ki): 0.651 µM | IC50 [10]: Not Active | Ki [10]: Not Active | IC50 [11]: Not Active | IC50 ([12]; cho-k1): Not Active | IC50 [13]: Not Active

COc1c(C)c2c(c(O)c1C/C=C(\C)CCC(=O)OCCN1CCOCC1)C(=O)OC2 [MYCOPHENOLATE MOFETIL]
IC50 ([1]; cho-k1): Not Active | IC50 [2]: Not Active | IC50 [3]: Not Active | IC50 [4]: Not Active | IC50 (Melanocortin receptor 4): Not Active | IC50 [5]: Not Active | Ki [5]: Not Active | IC50 [6]: Not Active | Ki [6]: Not Active | IC50 (Vasopressin V1a receptor): Not Active | IC50 (Acetylcholinesterase): Not Active | IC50 (Thromboxane-A synthase; platelet): Not Active | IC50 [7]: Not Active | IC50 [8]: Not Active | IC50 (Insulin receptor): Not Active | IC50 (Cannabinoid receptor 1): Not Active | IC50 ([9]; hela): Not Active | IC50 [10]: Not Active | Ki [10]: Not Active | IC50 [11]: Not Active | IC50 ([12]; cho-k1): Not Active | IC50 [13]: Not Active

COC(=O)C1=C(C)NC(C)=C(C(=O)OC)C1c1ccccc1[N+](=O)[O-] [NIFEDIPINE]
IC50 ([1]; cho-k1): Not Active | IC50 [2]: Not Active | IC50 [3]: Not Active | IC50 [4]: Not Active | IC50 (Melanocortin receptor 4): Not Active | IC50 [5]: Not Active | Ki [5]: Not Active | IC50 [6]: Not Active | Ki [6]: Not Active | IC50 (Vasopressin V1a receptor): Not Active | IC50 (Acetylcholinesterase): Not Active | IC50 (Thromboxane-A synthase; read-out: IC50): 18.6 µM | IC50 [7]: Not Active | IC50 [8]: Not Active | IC50 (Insulin receptor): Not Active | IC50 (Cannabinoid receptor 1): Not Active | IC50 ([9]; hela): Not Active | IC50 [10]: Not Active | Ki [10]: Not Active | IC50 [11]: Not Active | IC50 ([12]; read-out: IC50): 2.19 µM | Ki ([12]; read-out: Ki): 0.847 µM | IC50 [13]: Not Active

NNc1ccccc1 [PHENYLHYDRAZINE]
IC50 ([1]; cho-k1): Not Active | IC50 [2]: Not Active | IC50 [3]: Not Active | IC50 [4]: Not Active | IC50 (Melanocortin receptor 4): Not Active | IC50 [5]: Not Active | Ki [5]: Not Active | IC50 [6]: Not Active | Ki [6]: Not Active | IC50 (Vasopressin V1a receptor): Not Active | IC50 (Acetylcholinesterase): Not Active | IC50 (Thromboxane-A synthase; platelet): Not Active | IC50 [7]: Not Active | IC50 [8]: Not Active | IC50 (Insulin receptor): Not Active | IC50 (Cannabinoid receptor 1): Not Active | IC50 ([9]; hela): Not Active | IC50 [10]: Not Active | Ki [10]: Not Active | IC50 [11]: Not Active | IC50 ([12]; cho-k1): Not Active | IC50 [13]: Not Active
